Values quoted from earlier work, collected in US20220395522A1, “Methods of Use of Glucosamine for Increasing Nitrogen Retention” (TSI Bioproducts (Xuzhou) Co., Ltd., priority 2021, published 2022).

Conditions: cited from earlier work

N[C@H]1C(O)O[C@H](CO)[C@@H](O)[C@@H]1O (some centres unmarked) [glucosamine]
Ingested glucosamine absorbed (human digestive tract): 10-12% | Ingested glucosamine metabolized by members of the intestinal microbiota before it is absorbed (in vivo): more than 50%
